Data reported in patent publication US10189859B2, “Derivatives of 6-(2,3-dichlorophenyl)-1,2,4-triazin-5-amine” (Nektar Therapeutics, priority 2013, dated 2019).
Where “and” joins values, the source holds several entries; their conditions need not be identical. Equal entries are not always repeated. Structures can show the parent of a compound that is named as a salt. Where two headings read alike, the source gives them in different places.

Tests used:
[1] = biological target: Nav1.7 sodium channels (human SCN9A gene) (Homo sapiens (Human), UniProt Q15858); assay: Automated patch clamp (IonWorks Barracuda) of Nav1.7 stably expressed in CHO cells; assay type: cell-based
Method: The potencies of the compounds provided herein to block specific Na+ channels was measured using automated patch clamp electrophysiologically of Nav1.7 sodium channels (human SCN9A gene) stably expressed in CHO cells using the IonWorks™ Barracuda system. Currents were measured from the whole cell patch configuration. From a holding potential of −90 mV, membranes were subjected to a 200 ms pre-pulse to −120 mV, then pulsed to 0 mV to measure blockade of the tonic (resting) state. Inactivated state block was elicited by repolarization to −100 mV (20 ms pulse duration), followed by depolarization to 0 mV (20 ms pulse duration). Peak inward Na+ currents were measured in the presence of vehicle or various concentrations of the test compound to determine the percent block of current. Concentration-response relationships were used to calculate IC50 values for the illustrative compounds.

[2] = Pharmacokinetics after intravenous or oral dosing, plasma LC/MS/MS; assay type: in vivo; conditions: fasted male Sprague Dawley rats
Method: Fasted, male Sprague Dawley rats were dosed intravenously or orally. Blood samples were collected at pre-determined time points and plasma was separated. Test article concentrations were determined in plasma by a LC/MS/MS method. Non compartmental analysis was performed to estimate the area under the plasma concentration vs. time curve (AUC). Clearance parameters (CL), bioavailabilities (F) and half-lives were calculated.

AFP model = assay: AFP animal model; assay type: in vivo
Source text: The efficacy of the compounds when evaluated in additional well-known animal models, AFP, RR, and hyperalgesia, was also explored.

Na+ channels = assay: Blockage of Na+ channels, whole-cell patch clamp, isolated dorsal root ganglion cells; assay type: cell-based, rat
Method: Currents are measured using the whole-cell variant of the patch clamp method. INa is elicited by a pulse to −20 mV from a holding potential of −120 mV or −70 mV to measure blockade at the inactivated state (pulse duration of 40 ms), Peak inward current is measured for INa. Pacing rates of […] are examined. Increasing concentrations of test compounds are added to the cells in a cumulative manner to generate a concentration-response relationship which is utilized to calculate the IC50.

[3] = read-out: Inactivated state IC50
[4] = inactivated state block, CHO cells, read-out: Inactivated state IC50
[5] = tonic (resting) state block, CHO cells, read-out: Tonic state IC50
[6] = AFP, Ph 2, timepoint 0.5 h, minimum effective dose

Chain of Nav1.7 sodium channels (human SCN9A gene) (Q15858 whole entry): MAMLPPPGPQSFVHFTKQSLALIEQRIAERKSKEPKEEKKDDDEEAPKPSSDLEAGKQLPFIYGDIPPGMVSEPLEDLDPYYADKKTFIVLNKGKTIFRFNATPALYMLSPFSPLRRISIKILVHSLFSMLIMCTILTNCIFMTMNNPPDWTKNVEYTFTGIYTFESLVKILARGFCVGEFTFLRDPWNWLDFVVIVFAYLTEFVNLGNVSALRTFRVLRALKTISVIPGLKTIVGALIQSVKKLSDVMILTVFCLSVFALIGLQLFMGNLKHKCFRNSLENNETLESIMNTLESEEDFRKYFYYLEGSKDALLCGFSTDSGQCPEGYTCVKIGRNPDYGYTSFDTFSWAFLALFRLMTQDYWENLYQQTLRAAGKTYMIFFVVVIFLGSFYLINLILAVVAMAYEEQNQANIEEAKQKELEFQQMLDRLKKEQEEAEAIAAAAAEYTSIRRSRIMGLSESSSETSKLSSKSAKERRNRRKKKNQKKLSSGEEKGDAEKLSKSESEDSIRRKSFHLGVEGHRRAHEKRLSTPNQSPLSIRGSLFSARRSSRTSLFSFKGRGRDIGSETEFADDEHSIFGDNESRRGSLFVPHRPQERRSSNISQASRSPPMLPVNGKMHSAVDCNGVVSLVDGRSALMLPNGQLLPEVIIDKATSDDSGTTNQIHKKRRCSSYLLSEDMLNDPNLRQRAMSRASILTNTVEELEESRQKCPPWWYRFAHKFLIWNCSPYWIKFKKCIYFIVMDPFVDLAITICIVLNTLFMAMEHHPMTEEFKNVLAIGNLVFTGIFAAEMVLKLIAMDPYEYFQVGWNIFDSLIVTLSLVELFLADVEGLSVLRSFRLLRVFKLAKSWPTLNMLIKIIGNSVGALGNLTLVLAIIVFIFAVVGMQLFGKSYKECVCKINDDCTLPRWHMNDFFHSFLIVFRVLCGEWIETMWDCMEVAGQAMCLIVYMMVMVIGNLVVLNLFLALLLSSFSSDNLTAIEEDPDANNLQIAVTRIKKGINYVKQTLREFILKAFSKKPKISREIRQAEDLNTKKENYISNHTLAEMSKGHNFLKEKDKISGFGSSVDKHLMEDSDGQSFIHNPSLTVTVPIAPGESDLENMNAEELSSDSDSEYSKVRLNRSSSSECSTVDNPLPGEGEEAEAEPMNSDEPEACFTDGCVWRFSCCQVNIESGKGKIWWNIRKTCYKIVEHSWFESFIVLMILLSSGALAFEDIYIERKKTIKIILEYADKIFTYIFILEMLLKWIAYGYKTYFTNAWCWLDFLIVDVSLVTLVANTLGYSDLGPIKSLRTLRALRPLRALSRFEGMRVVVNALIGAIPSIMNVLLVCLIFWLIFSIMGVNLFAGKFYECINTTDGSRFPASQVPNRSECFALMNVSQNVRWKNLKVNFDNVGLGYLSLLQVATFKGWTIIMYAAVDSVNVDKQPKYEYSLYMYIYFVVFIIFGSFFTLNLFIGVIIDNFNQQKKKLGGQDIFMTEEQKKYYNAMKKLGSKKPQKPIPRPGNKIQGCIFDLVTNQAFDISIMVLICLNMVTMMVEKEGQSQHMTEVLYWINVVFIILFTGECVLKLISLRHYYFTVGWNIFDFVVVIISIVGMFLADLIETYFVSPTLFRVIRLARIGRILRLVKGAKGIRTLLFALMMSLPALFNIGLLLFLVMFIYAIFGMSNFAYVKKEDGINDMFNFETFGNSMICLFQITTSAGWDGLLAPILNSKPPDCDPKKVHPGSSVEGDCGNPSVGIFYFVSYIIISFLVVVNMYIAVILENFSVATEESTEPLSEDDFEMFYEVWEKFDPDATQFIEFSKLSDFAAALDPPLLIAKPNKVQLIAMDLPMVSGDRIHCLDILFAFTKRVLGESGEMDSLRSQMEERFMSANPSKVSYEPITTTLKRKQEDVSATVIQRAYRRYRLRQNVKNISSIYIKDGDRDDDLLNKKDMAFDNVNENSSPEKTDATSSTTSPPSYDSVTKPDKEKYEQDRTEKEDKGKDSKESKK

Row | SMILES | IC50 [1, 3] | IC50 ([1]; read-out: Tonic state IC50) | exposure after oral dosing (qualitative ranking) [2] | IC50 [1, 4] | IC50 [1, 5] | pharmacokinetics (qualitative ranking of the compounds tested) [2] | further results
1 | COC[C@@H](O)CN1CCN(c2nnc(-c3cccc(Cl)c3Cl)c(N)n2)CC1 [Compound 98, (S)-1-(4-(5-amino-6-(2,3-dichlorophenyl)-1,2,4-triazin-3-yl)piperazin-1-yl)-3-methoxypropan-2-ol] | 57.5 µM and < 50 µM | > 200 µM | best exposure after oral dosing | – | – | – | –
2 | CC(C)(CO)Nc1nnc(-c2cccc(Cl)c2Cl)c(N)n1 [Compound 1, 2-((5-amino-6-(2,3-dichlorophenyl)-1,2,4-triazin-3-yl)amino)-2-methylpropan-1-ol] | – | – | – | 60.1 µM and < 50 µM | > 200 µM and 197 µM | – | MED (mg/kg) (AFP model; [6]): 450 (Ph 2) mg/kg; ED50 (AFP model; AFP, Ph 2, timepoint 0.5 h, read-out: ED50): 589 mg/kg
3 | Nc1nc(N2CCN3C(=O)OC[C@@H]3C2)nnc1-c1cccc(Cl)c1Cl [Compound 128, (S)-7-(5-amino-6-(2,3-dichlorophenyl)-1,2,4-triazin-3-yl)tetrahydro-1H-oxazolo[3,4-a]pyrazin-3(5H)-one HCl salt] | > 300 µM | > 200 µM | best exposure after oral dosing | – | – | most favorable pharmacokinetics | –
4 | CC(C)OC[C@H](O)CN1CCN(c2nnc(-c3cccc(Cl)c3Cl)c(N)n2)CC1 [Compound 73, (R)-1-(4-(5-Amino-6-(2,3-dichlorophenyl)-1,2,4-triazin-3-yl)piperazin-1-yl)-3-isopropoxypropan-2-ol] | – | – | best exposure after oral dosing | < 50 µM | 179 µM | – | –
5 | CCOC[C@H](O)CN1CCN(c2nnc(-c3cccc(Cl)c3Cl)c(N)n2)CC1 [Compound 55, (R)-1-(4-(5-Amino-6-(2,3-dichlorophenyl)-1,2,4-triazin-3-yl)piperazin-1-yl)-3-ethoxypropan-2-ol] | – | – | best exposure after oral dosing | 62.3 µM | > 200 µM | – | –
6 | CC(CO)N1CCN(c2nnc(-c3cccc(Cl)c3Cl)c(N)n2)CC1 (centres unmarked) [Compound 89, 2-(4-(5-amino-6-(2,3-dichlorophenyl)-1,2,4-triazin-3-yl)piperazin-1-yl)propan-1-ol] | – | – | best exposure after oral dosing | 66.6 µM | > 200 µM | – | –
7 | CS(=O)(=O)CCN1CCN(c2nnc(-c3cccc(Cl)c3Cl)c(N)n2)CC1 [Compound 202, 6-(2,3-dichlorophenyl)-3-(4-(2-(methylsulfonyl)ethyl)piperazin-1-yl)-1,2,4-triazin-5-amine] | > 300 µM | > 200 µM | best exposure after oral dosing | – | – | – | –
8 | Nc1nc(NCCOCCOCCOC(F)(F)F)nnc1-c1cccc(Cl)c1Cl [Compound 167, 6-(2,3-dichlorophenyl)-N^3-(2-(2-(2-(trifluoromethoxy)ethoxy)ethoxy)ethyl)-1,2,4-triazine-3,5-diamine] | – | – | – | < 50 µM | 108 µM and 91.5 µM and 130 µM | – | MED (AFP model; AFP, +ABT, timepoint 0.5 h, minimum effective dose): 100 mg/kg
9 | COC[C@@H](O)CN1CCN(c2nnc(-c3cccc(Cl)c3Cl)c(N)n2)CC1 [Compound 97, (S)-1-(4-(5-amino-6-(2,3-dichlorophenyl)-1,2,4-triazin-3-yl)piperazin-1-yl)-3-methoxypropan-2-ol] | < 50 µM and 82.2 µM | > 200 µM | best exposure after oral dosing | 90.5 µM | – | most favorable pharmacokinetics | IC50 (Na+ channels; Vh −70 mV (inactivated state), pacing 0.1 Hz, read-out: IC50 (μM) 0.1 Hz): 39.5 µM; IC50 (Na+ channels; Vh −70 mV (inactivated state), pacing 3 Hz, read-out: IC50 (μM) 3 Hz): 21.5 µM; IC50 (Na+ channels; Vh −70 mV (inactivated state), pacing 10 Hz, read-out: IC50 (μM) 10 Hz): 16.5 µM; IC50 (Na+ channels; Vh −120 mV, pacing 0.1 Hz, read-out: IC50 (μM) 0.1 Hz): > 100 µM; IC50 (Na+ channels; Vh −120 mV, pacing 3 Hz, read-out: IC50 (μM) 3 Hz): > 100 µM; IC50 (Na+ channels; Vh −120 mV, pacing 10 Hz, read-out: IC50 (μM) 10 Hz): 74.4 µM
10 | Cl.Cl.Nc1nc(N2CCN(C[C@H](O)COCC(F)(F)F)CC2)nnc1-c1cccc(Cl)c1Cl [Compound 95, (S)-1-(4-(5-amino-6-(2,3-dichlorophenyl)-1,2,4-triazin-3-yl)-piperazin-1-yl)-3-(2,2,2-trifluoroethoxy)-propan-2-ol-2HCl] | – | – | best exposure after oral dosing | – | – | most favorable pharmacokinetics | MED (mg/kg) (AFP model; AFP, Ph 1, timepoint 0.5 h, 500 mg/kg as 2 doses @ 250 mg/kg): 500 (Ph 1) mg/kg
11 | CC(C)(CO)N1CCN(c2nnc(-c3cccc(Cl)c3Cl)c(N)n2)CC1 [Compound 90, 2-(4-(5-amino-6-(2,3-dichlorophenyl)-1,2,4-triazin-3-yl)piperazin-1-yl)-2-methylpropan-1-ol] | 56.2 µM | 183 µM | best exposure after oral dosing | – | – | – | –
12 | Nc1nc(N2CCN3C(=O)COC[C@H]3C2)nnc1-c1cccc(Cl)c1Cl [Compound 130, (R)-8-(5-amino-6-(2,3-dichlorophenyl)-1,2,4-triazin-3-yl)hexahydropyrazino[2,1-c][1,4]oxazin-4(3H)-one HCl salt] | 204 µM | > 200 µM | best exposure after oral dosing | – | – | most favorable pharmacokinetics | –
13 | Nc1nc(N2CCN(CCO)CC2)nnc1-c1cccc(Cl)c1Cl [Compound 200, 2-(4-(5-amino-6-(2,3-dichlorophenyl)-1,2,4-triazin-3-yl)piperazin-1-yl)ethanol] | – | – | best exposure after oral dosing | 120 µM | > 200 µM | – | –
14 | Nc1nc(N2CCN(CC(O)CO)CC2)nnc1-c1cccc(Cl)c1Cl (centres unmarked) [Compound 92, 3-(4-(5-amino-6-(2,3-dichlorophenyl)-1,2,4-triazin-3-yl)piperazin-1-yl)propane-1,2-diol] | – | – | best exposure after oral dosing | > 300 µM | > 200 µM | – | –
15 | Nc1nc(N2CCN3C(=O)OC[C@H]3C2)nnc1-c1cccc(Cl)c1Cl [Compound 127, (R)-7-(5-amino-6-(2,3-dichlorophenyl)-1,2,4-triazin-3-yl)tetrahydro-1H-oxazolo[3,4-a]pyrazin-3(5H)-one] | > 300 µM | > 200 µM | best exposure after oral dosing | – | – | most favorable pharmacokinetics | –
16 | Nc1nc(N2CCNCC2)nnc1-c1cccc(Cl)c1Cl [Compound 79, 6-(2,3-dichlorophenyl)-3-(piperazin-1-yl)-1,2,4-triazin-5-amine] | – | – | best exposure after oral dosing | 95.3 µM | > 200 µM | – | –
17 | Nc1nc(N2CCN(CC(O)COC(F)(F)F)CC2)nnc1-c1cccc(Cl)c1Cl (centres unmarked) [Compound 27, 1-(4-(5-Amino-6-(2,3-dichlorophenyl)-1,2,4-triazin-3-yl)piperazin-1-yl)-3-(trifluoromethoxy)propan-2-ol] | – | – | best exposure after oral dosing | – | – | most favorable pharmacokinetics | –
18 | COC[C@H](O)CN1CCN(c2nnc(-c3cccc(Cl)c3Cl)c(N)n2)CC1 [Compound 96, (R)-1-(4-(5-amino-6-(2,3-dichlorophenyl)-1,2,4-triazin-3-yl)piperazin-1-yl)-3-methoxypropan-2-ol] | < 50 µM | > 200 µM | best exposure after oral dosing | – | – | most favorable pharmacokinetics | –
19 | Nc1nc(N2CCN(C[C@H](O)CCl)CC2)nnc1-c1cccc(Cl)c1Cl [Compound 207, (S)-1-(4-(5-amino-6-(2,3-dichlorophenyl)-1,2,4-triazin-3-yl)piperazin-1-yl)-3-chloropropan-2-ol] | – | – | best exposure after oral dosing | 107 µM and 133 µM | > 200 µM | – | ED50 (AFP model; 0.5 h): 476 mg/kg; MED (mg/kg) (AFP model; [6]): 300 (Ph 2) mg/kg
20 | Nc1nc(N2CCN(CCOCCO)CC2)nnc1-c1cccc(Cl)c1Cl [Compound 201, 2-(2-(4-(5-amino-6-(2,3-dichlorophenyl)-1,2,4-triazin-3-yl)piperazin-1-yl)ethoxy)ethanol] | – | – | best exposure after oral dosing | 202 µM | > 200 µM | – | –
